Results taken from patent publication EP4786458A1, “ANALGESIC COMPOUND, PREPARATION METHOD THEREFOR, AND USE THEREOF” (West China Hospital, Sichuan University, priority 2023, dated 2025).

Tested on: not listed separately
Test: Loss of tail withdrawal reflex (LOTWR) in rats, single intravenous injection, dose escalation for efficacy and severe adverse reactions
Format: in vivo, SD rats
Details: rat, in vivo, single intravenous injection, minimum dose resulting in serious adverse reactions / minimum effective dose, class symbol, read-out: The safety therapeutic index
Procedure: (§1) Using the loss of tail withdrawal reflex (LOTWR) in rats as an indicator, the potent analgesic effect of the compounds according to the present invention was evaluated.
(§2) 1.1 Experimental animals: Adult male SD rats weighing between 220-300 g were selected for the experiment. The rats were housed in sawdust-bedded cages with a temperature of 25+1°C, humidity ranging from 40% to 60%, and a 12-hour light/12-hour dark cycle. Each cage contained no more than 5 rats, with free access to water and food.
(§3) • (1) The compound of the present invention, along with the positive control drug remifentanil and the negative control (vehicle), were administered in fixed volumes. A dose escalation approach was employed to determine the minimum effective dose at which the compound of the present invention produces potent analgesic effects, as well as the minimum dose at which severe adverse reactions first appear. • (2) LOTWR lasting for 30 seconds was used as the criterion for generating potent analgesic effects. During the experiment, drugs were administered via the tail vein of rats, with a dosage volume of 0.6 mL per rat and a dosage rate of 0.02 mL/s. Subsequently, an alligator clip was applied at a distance of 1 cm from the base of the rat's tail, clamping once longitudinally and once transversely before being left in place. Meanwhile, the distal end of the alligator clip was continuously oscillated (30 times/min) to continuously generate stimulation. […] When all results were "no LOTWR" after 10 minutes of testing (5 trials), the test was stopped and recorded as "ineffective." • (3) All compounds would undergo a dose escalation for efficacy evaluation, starting from 1 mg/kg (due to the high potency of remifentanil, the lowest dose was set at 1 µg/kg), followed by 5 mg/kg, 10 mg/kg, 20 mg/kg, and so on (increasing by 20 mg/kg increments after 20 mg/kg). The dose escalation would be stopped when rats show signs of death, and the lowest effective dose and the lowest dose at which severe adverse reactions occur would be recorded throughout the process. In this study, severe adverse reactions are defined as apnea, generalized tonic rigidity, convulsions, opisthotonus, seizures, etc.
(§4) 1.3 Evaluation indicators: the minimum effective dose; the minimum dose resulting in serious adverse reactions; the safety therapeutic index = "the minimum dose resulting in serious adverse reactions" / "the minimum effective dose".

| SMILES | selectivity ratio |
| --- | --- |
| Cc1ccc(NCC(=O)OCc2cccs2)c(N(C)C)c1 [Example 2] | 2 to 4 |
| Cc1ccc(NCC(=O)OCc2ccco2)cc1N(C)C [Example 39] | > 4 |
| Cc1ccc(NCC(=O)OCc2ccno2)c(N(C)C)c1 [Example 40] | ≤ 2 |
| Cc1ccc(NCC(=O)OCc2ccsc2)c(N(C)C)c1 [Example 1] | > 4 |
| Cc1ccc(NCC(=O)NCc2ccccc2)c(N(C)C)c1 [Example 27] | ≤ 2 |
| Cc1ccc(OCC(=O)OCc2ccco2)c(N(C)C)c1 [Example 23] | ≤ 2 |
| Cc1ccc(NCC(=O)NCc2ccnn2C)c(N(C)C)c1 [Example 33] | ≤ 2 |
| Cc1ccc(SCC(=O)OCc2ccco2)c(N(C)C)c1 [Example 20] | ≤ 2 |
| Cc1ccc(NCC(=O)OCc2ccoc2)cc1N(C)C [Example 30] | 2 to 4 |
| Cc1ccc(NCC(=O)NCc2ccoc2)c(N(C)C)c1 [Example 16] | ≤ 2 |
| Cc1ccc(NCC(=O)NCc2ccns2)c(N(C)C)c1 [Example 17] | > 4 |
| Cc1ccc(NCC(=O)NCc2ccns2)cc1N(C)C [Example 25] | 2 to 4 |
| Cc1ccc(OCC(=O)NCc2cccs2)c(N(C)C)c1 [Example 10] | > 4 |
| Cc1ccc(NCC(=O)OCc2ccoc2)c(N(C)C)c1 [Example 18] | ≤ 2 |
| Cc1ccc(OCC(=O)OCc2cccs2)cc1N(C)C [Example 24] | ≤ 2 |
| CN(C)c1cccc(NCC(=O)OCc2cccs2)c1 [Example 13] | ≤ 2 |
| Cc1ccc(SCC(=O)OCc2cccs2)c(N(C)C)c1 [Example 14] | 2 to 4 |
| Cc1cc(COC(=O)CNc2ccc(C)c(N(C)C)c2)n(C)n1 [Example 37] | > 4 |
| Cc1ccc(NCC(=O)NCc2cnsc2)c(N(C)C)c1 [Example 19] | 2 to 4 |

| SMILES | selectivity ratio |
| --- | --- |
| CN(C)c1ccccc1NCC(=O)OCc1ccsc1 [Example 15] | 2 to 4 |
| Cc1ccc(NCC(=O)OCc2cc(C)nn2C)c(N(C)C)c1 [Example 32] | > 4 |
| Cc1ccc(NCC(=O)OCc2ccnn2C)c(N(C)C)c1 [Example 34] | > 4 |
| Cc1ccc(NCC(=O)NCc2ccco2)c(N(C)C)c1 [Example 11] | > 4 |
| Cc1ccc(OCC(=O)OCc2cccs2)c(N(C)C)c1 [Example 6] | 2 to 4 |
| Cc1ccc(NCC(=O)OCc2ccsc2)cc1N(C)C [Example 38] | ≤ 2 |
| Cc1ccc(OCC(=O)NCc2ccsc2)c(N(C)C)c1 [Example 36] | 2 to 4 |
| Cc1ccc(NCC(=O)NCc2cccs2)cc1N(C)C [Example 29] | ≤ 2 |
| Cc1cc(C)cc(CNC(=O)CNc2ccc(C)cc2N(C)C)c1 [Example 28] | ≤ 2 |
| Cc1ccc(NCC(=O)OCc2ccco2)c(N(C)C)c1 [Example 7] | 2 to 4 |
| Cc1ccc(NCC(=O)NCc2cc(C)nn2C)c(N(C)C)c1 [Example 31] | 2 to 4 |
| Cc1ccc(NCC(=O)NCc2ncc[nH]2)c(N(C)C)c1 [Example 22] | ≤ 2 |
| Cc1ccc(OCC(=O)NCc2ccco2)c(N(C)C)c1 [Example 12] | > 4 |
| CN(C)c1ccccc1NCC(=O)OCc1cccs1 [Example 4] | > 4 |
| Cc1ccc(NCC(=O)NCc2ccco2)cc1N(C)C [Example 21] | ≤ 2 |
| Cc1ccc(NCC(=O)OCc2cccs2)cc1N(C)C [Example 8] | > 4 |
| CN(C)c1cc(F)ccc1NCC(=O)OCc1cccs1 [Example 5] | ≤ 2 |
| Cc1ccc(NCC(=O)OCc2ccnn2C)cc1N(C)C [Example 35] | > 4 |
| Cc1ccc(NCC(=O)NCc2ccno2)c(N(C)C)c1 [Example 9] | > 4 |

Tested on: rats
Test: as above
Format: in vivo, SD rats
Details: Rattus norvegicus, single intravenous injection (tail vein), LOTWR lasting for 30 seconds as criterion, class symbol, read-out: The minimum effective dose
Procedure: as §1, §2, §3, §4

| SMILES | minimal effective dose [mg/kg] |
| --- | --- |
| Cc1ccc(NCC(=O)OCc2cccs2)c(N(C)C)c1 [Example 2] | > 30 |
| Cc1ccc(NCC(=O)OCc2ccco2)cc1N(C)C [Example 39] | 10 to 20 |
| Cc1ccc(NCC(=O)OCc2ccno2)c(N(C)C)c1 [Example 40] | > 30 |
| Cc1ccc(NCC(=O)OCc2ccsc2)c(N(C)C)c1 [Example 1] | ≤ 10 |
| Cc1ccc(NCC(=O)NCc2ccccc2)c(N(C)C)c1 [Example 27] | ≤ 10 |
| Cc1ccc(OCC(=O)OCc2ccco2)c(N(C)C)c1 [Example 23] | > 30 |
| Cc1ccc(NCC(=O)NCc2ccnn2C)c(N(C)C)c1 [Example 33] | > 30 |
| Cc1ccc(SCC(=O)OCc2ccco2)c(N(C)C)c1 [Example 20] | > 30 |
| Cc1ccc(NCC(=O)OCc2ccoc2)cc1N(C)C [Example 30] | > 30 |
| Cc1ccc(NCC(=O)NCc2ccoc2)c(N(C)C)c1 [Example 16] | > 30 |
| Cc1ccc(NCC(=O)NCc2ccns2)c(N(C)C)c1 [Example 17] | 10 to 20 |
| Cc1ccc(NCC(=O)NCc2ccns2)cc1N(C)C [Example 25] | 10 to 20 |
| Cc1ccc(OCC(=O)NCc2cccs2)c(N(C)C)c1 [Example 10] | ≤ 10 |
| Cc1ccc(NCC(=O)OCc2ccoc2)c(N(C)C)c1 [Example 18] | > 30 |
| Cc1ccc(OCC(=O)OCc2cccs2)cc1N(C)C [Example 24] | > 30 |
| CN(C)c1cccc(NCC(=O)OCc2cccs2)c1 [Example 13] | > 30 |
| Cc1ccc(SCC(=O)OCc2cccs2)c(N(C)C)c1 [Example 14] | > 30 |
| Cc1cc(COC(=O)CNc2ccc(C)c(N(C)C)c2)n(C)n1 [Example 37] | ≤ 10 |
| Cc1ccc(NCC(=O)NCc2cnsc2)c(N(C)C)c1 [Example 19] | > 30 |

| SMILES | minimal effective dose [mg/kg] |
| --- | --- |
| CN(C)c1ccccc1NCC(=O)OCc1ccsc1 [Example 15] | > 30 |
| Cc1ccc(NCC(=O)OCc2cc(C)nn2C)c(N(C)C)c1 [Example 32] | ≤ 10 |
| Cc1ccc(NCC(=O)OCc2ccnn2C)c(N(C)C)c1 [Example 34] | ≤ 10 |
| Cc1ccc(NCC(=O)NCc2ccco2)c(N(C)C)c1 [Example 11] | ≤ 10 |
| Cc1ccc(OCC(=O)OCc2cccs2)c(N(C)C)c1 [Example 6] | ≤ 10 |
| Cc1ccc(NCC(=O)OCc2ccsc2)cc1N(C)C [Example 38] | > 30 |
| Cc1ccc(OCC(=O)NCc2ccsc2)c(N(C)C)c1 [Example 36] | 10 to 20 |
| Cc1ccc(NCC(=O)NCc2cccs2)cc1N(C)C [Example 29] | > 30 |
| Cc1cc(C)cc(CNC(=O)CNc2ccc(C)cc2N(C)C)c1 [Example 28] | 20 to 30 |
| Cc1ccc(NCC(=O)OCc2ccco2)c(N(C)C)c1 [Example 7] | 20 to 30 |
| Cc1ccc(NCC(=O)NCc2cc(C)nn2C)c(N(C)C)c1 [Example 31] | 10 to 20 |
| Cc1ccc(NCC(=O)NCc2ncc[nH]2)c(N(C)C)c1 [Example 22] | > 30 |
| Cc1ccc(OCC(=O)NCc2ccco2)c(N(C)C)c1 [Example 12] | 10 to 20 |
| CN(C)c1ccccc1NCC(=O)OCc1cccs1 [Example 4] | ≤ 10 |
| Cc1ccc(NCC(=O)NCc2ccco2)cc1N(C)C [Example 21] | > 30 |
| Cc1ccc(NCC(=O)OCc2cccs2)cc1N(C)C [Example 8] | 10 to 20 |
| CN(C)c1cc(F)ccc1NCC(=O)OCc1cccs1 [Example 5] | 20 to 30 |
| Cc1ccc(NCC(=O)OCc2ccnn2C)cc1N(C)C [Example 35] | ≤ 10 |
| Cc1ccc(NCC(=O)NCc2ccno2)c(N(C)C)c1 [Example 9] | ≤ 10 |
